Test results from PubChem BioAssay AID1996.
Converted amounts (≈) assume the structure as drawn.

conditions: buffer; pH 7.4; 200.0 µM

SMILES	solubility kinetic [µg/mL]
COCCSc1nc(N)c2c3c(sc2n1)CN(C)CC3	> 46.6
CC(C)C1Nc2ccc(C(=O)NC3CCCCC3)cc2NC1=O (centres undefined)	> 47.3
O=C1CSC(c2cccnc2)N1Cc1cccnc1 (centres undefined)	40.2 (≈ 148 µM)
CC1CCCN(CC(O)COCc2ccc3c(c2)OCO3)C1.Cl (centres undefined)	39
O=C(NC1CCCCC1)Oc1cc2oc(=O)sc2cc1Br	10.2 (≈ 27.4 µM)
COc1ccc(N2C(=O)c3ccccc3C2=O)cc1	10.7 (≈ 42.2 µM)
O=c1c2cc(Br)ccc2nc(-c2ccccc2)n1O	39.4 (≈ 124 µM)
Cc1sc2nc(-c3ccc(Br)cc3)oc(=O)c2c1C	< 0.7
CCOc1ccc(N2CC(C(=O)NC3CCCC3)CC2=O)cc1 (centres undefined)	> 47.5
Cl.N=C(N)SCc1ccc(O)c([N+](=O)[O-])c1	> 39.6
NCCc1c(Cc2ccccc2)[nH]c2ccccc12	34.5 (≈ 138 µM)
Cc1cc(C)c(C)c(S(=O)(=O)N2CCN(C(=O)c3ccco3)CC2)c1C	4.1 (≈ 10.9 µM)
O=C(/C=C/c1ccc(F)cc1)N1CCN(Cc2ccccc2)CC1	44.5 (≈ 137 µM)
O=C(Nc1cc(S(=O)(=O)N2CCOCC2)ccc1N1CCOCC1)c1ccccc1Cl	> 69.9
COc1cc(C(=S)N2CCCC2)ccc1OCc1ccccc1	1.5 (≈ 4.58 µM)
O=C(CN1CCCCC1)n1c2ccccc2c2ccccc21	24.3 (≈ 83.1 µM)
CC(C)Nc1nc(Cl)nc(NC2CCCCC2)n1	2.7 (≈ 10 µM)
Cc1ccc(NS(=O)(=O)c2ccc(C(=O)NC3CCN(Cc4ccccc4)CC3)cc2)cc1.Cl	6.4
CN(C)/C=N/c1c(C#N)cnn1C	> 26.6
Cc1cccc(C)c1OCCCN1CCOCC1.Cl	35.5
COC(=O)CSc1nc(NC#N)nc(NC(C)(C)C)n1	36.7 (≈ 124 µM)
CSCCNC(=O)c1ccc2nc(C3CCCCC3)oc2c1	13.2 (≈ 41.5 µM)
Cc1[nH]c2ccccc2c1C(=O)CSC(=S)N1CCN(C)CC1	2.4 (≈ 6.91 µM)
Cc1ccc(CN2CCC(CO)(CC3CCCCO3)CC2)o1 (centres undefined)	> 46.1
CN(C)CCC=C1c2ccccc2CCc2ccccc21.Cl	> 47.1
COc1ccc(S(=O)(=O)NCC2CCC(C(=O)O)CC2)cc1 (centres undefined)	> 49.1

SMILES	solubility kinetic [µg/mL]
C(=C\c1ccccc1)/CNCC1CCCO1.Cl (centres undefined)	38
COc1ccc(-c2nc(-c3ccncc3)no2)cc1	1.1 (≈ 4.34 µM)
CC1CN(C(=O)c2cc3cc([N+](=O)[O-])ccc3s2)CC(C)O1 (centres undefined)	18.5 (≈ 57.7 µM)
C=CCNC(=O)/C(C#N)=C/c1ccc2c(c1)OCCO2	7 (≈ 25.9 µM)
Cc1ccccc1CNC(=O)C1CCCN(c2cnccn2)C1 (centres undefined)	44.3 (≈ 143 µM)
O=S1(=O)N=C(N2CCCC2)c2ccccc21	31.4 (≈ 133 µM)
CC1CCCCN1C(=O)CSc1nc(C2CC2)nc2ccccc12 (centres undefined)	> 51.2
CNC(=S)Nc1cc(C)ccc1OC(F)F	> 36.9
CC1CCN(C(=O)CC(NC(N)=O)c2ccccc2Cl)CC1 (centres undefined)	44.2 (≈ 136 µM)
COc1ccc(CCN(C)C2CCCN(S(C)(=O)=O)C2)cc1OC (centres undefined)	> 53.5
Cc1oc(C(C)(C)C)c(CN2CCOCC2)c1C(=O)O.Cl	> 47.7
COc1ccc(C(C)NC(=O)C2CCCC2)cc1OC (centres undefined)	> 41.6
OCCN(CCO)c1nc2ccccc2[nH]1	> 33.2
COc1ccccc1CNc1cc(C)ccn1	28.8 (≈ 126 µM)
CNC(=S)N1CCC(Cc2ccccc2)CC1	36.9 (≈ 149 µM)
Cc1cc(=S)c2ccccc2[nH]1	20.5 (≈ 117 µM)
O=[N+]([O-])c1ccc(N2CCN(c3ccccc3F)CC2)nc1	0.7 (≈ 2.32 µM)
Cc1cccc(N2C(=O)C3C4C=CC(CC4)C3C2=O)c1 (centres undefined)	33.5 (≈ 125 µM)
Cc1ccc(C(=O)Nc2ccc(Nc3ccccc3)cc2)cc1Br	< 0.4
CN(C(=O)c1cc2ccccc2cc1O)C1CCCCC1	40.6 (≈ 143 µM)
COc1ccccc1Nc1nc(NCc2ccco2)c2ccccc2n1.Cl	0.4
CC(C)N(C(C)C)S(=O)(=O)c1ccc(Cl)nc1	32.4 (≈ 117 µM)
COc1ccccc1-c1nc(=S)c(C(C)=O)c(C)[nH]1	> 41.2
Cc1cc(C(=O)Nc2ccon2)c(C)o1	> 30.9
C=CCOc1ccccc1CN1CCCCCC1	28.7 (≈ 117 µM)

Next, values leading:

solubility kinetic [µg/mL]	SMILES
> 37.1	Cn1nccc1NC(=O)c1nccnc1C(=O)O
> 59.8	O=C(COC(=O)CN1C(=O)C2CCCCC2C1=O)Nc1ccc(F)c(F)c1F (centres undefined)
44 (≈ 138 µM)	CC(=O)Nc1ccc(S(=O)(=O)NCCc2ccccn2)cc1
5.2 (≈ 17.5 µM)	COc1ccc(COc2cccc3ccc(C)nc23)cc1F
21 (≈ 71.6 µM)	O=S(=O)([O-])CCC[n+]1ccc(Oc2ccccc2)cc1
41.6 (≈ 134 µM)	O=C(N/C(=C\c1ccco1)C(=O)N1CCCC1)c1ccccc1
33.7 (≈ 123 µM)	CN(Cc1ccccc1F)c1ncnc2sccc12
3.4 (≈ 7.29 µM)	COc1ccc(NC(=O)c2ccc3c(c2)C(=O)N(Cc2ccncc2)C3=O)cc1S(N)(=O)=O
> 44.6	CC(=O)Nc1ccc(S(=O)(=O)N2CCNC(=O)C2)cc1
< 0.3	Cc1cc(C)cc(NC(=O)Cn2cc(C=O)c3ccccc32)c1
1.8 (≈ 5.27 µM)	COc1ccc(NC(=O)CN2CCc3ccccc3C2)c([N+](=O)[O-])c1
1.4 (≈ 4.33 µM)	CC(=O)c1c(C)[nH]c(C(=O)NCCc2c[nH]c3ccccc23)c1C
4.9 (≈ 16.8 µM)	COC(=O)c1ccc(NC(=S)NC(=O)C2CCC2)cc1
> 44.5	O=C(OCC(=O)N1CCCCCC1)c1cccnc1Cl
> 53.9	COc1cc(C(=O)OCCNC(=O)c2ccccc2)cc(OC)c1OC
0.8 (≈ 2.84 µM)	Cc1cc(NC(=O)c2ccc(Cl)c([N+](=O)[O-])c2)no1
> 61.1	CCN(CC)S(=O)(=O)c1ccc(N2CCOCC2)c(NC(=O)c2ccco2)c1
23.7 (≈ 76.4 µM)	Cc1cccc(C(=O)NCC(C)NC(=O)c2cccc(C)c2)c1 (centres undefined)
43.4 (≈ 113 µM)	Cc1cccc(OC(C)C(=O)OCC(=O)N2CCN(c3ccccc3)CC2)c1 (centres undefined)
> 40.8	Cn1cnc2cc(NCc3ccc(Cl)cc3)ccc21
10.4 (≈ 32.8 µM)	Cc1ccc(C)c(S(=O)(=O)Nc2ccc3[nH]c(=O)[nH]c3c2)c1
< 0.3	COc1ccc2cc3cc(C(=O)NCCC(C)C)oc3nc2c1
8.1 (≈ 21.8 µM)	O=C(COC(=O)CCC(=O)c1cccs1)Nc1ccc(F)c(F)c1F

solubility kinetic [µg/mL]	SMILES
33.1 (≈ 102 µM)	O=C(CCNC(=O)c1ccco1)NCCc1c[nH]c2ccccc12
15.5 (≈ 55.7 µM)	Cc1cc(C(=O)OCC(=O)NC2CC2)ccc1[N+](=O)[O-]
> 48.7	O=C(O)/C=C/C(=O)Nc1nc(-c2ccc3ccccc3c2)cs1
26.5 (≈ 79.5 µM)	NC(=O)C1CCN(C(=O)C2CC(=O)N(c3ccc(F)cc3)C2)CC1 (centres undefined)
> 45.8	NC(=O)Nc1ccc(C(=O)OCC(=O)N2CCCC2=O)cc1
3 (≈ 11.1 µM)	Cc1cc(=O)oc2cc(NC(=O)C3CCCC3)ccc12
> 35.9	Cc1ccc(C(=O)OCC(=O)NC2CC2)s1
1.9 (≈ 5.94 µM)	O=C(NCCNc1ccc([N+](=O)[O-])cc1)c1ccc(Cl)cc1
> 42.2	O=C(NC(=S)Nc1cc([N+](=O)[O-])ccc1O)C1CC1
< 0.7	CC(=O)c1ccc(-n2c(C)c(C(C)=O)c3cc(O)ccc32)cc1
17.9 (≈ 66 µM)	O=C1C2C3C=CC(CC3)C2C(=O)N1c1ccc(F)cc1 (centres undefined)
2.8 (≈ 7.46 µM)	O=C(NC(=O)c1ccc(C(F)(F)F)cc1)Nc1ccc(-c2cnco2)cc1
> 66.7	CCOC(=O)C1=C(C)NC(C)=C(C(=O)OCC)C1C(=O)OCC(=O)NCc1ccccc1
> 62.1	CS(=O)(=O)c1ccc(C(=O)OCC(=O)Nc2cccnc2Cl)cc1[N+](=O)[O-]
> 45.8	CCOC(=O)c1cc2c(ccn2C)n1CC(=O)N(CC)CC
30.2 (≈ 143 µM)	CCCC(=O)NCc1ccccc1Cl
> 42.2	O=C(O)CCC(=O)NNC(=O)c1ccc([N+](=O)[O-])cc1
> 44.9	N#CC1=C(N)Oc2cc(N)ccc2C1c1ccc(F)cc1F (centres undefined)
> 49	Cc1ccc2oc(C(=O)NCC(c3ccco3)N(C)C)c(C)c2c1 (centres undefined)
47 (≈ 132 µM)	O=C(COC(=O)COc1ccccc1)Nc1ncc(Cl)cc1Cl
2.5 (≈ 8.63 µM)	Cc1cc(Cl)ccc1NC(=O)c1ccc2c(c1)OCO2
> 60.2	O=C(NN=Cc1ccc(O)cc1)c1ccccc1NS(=O)(=O)c1cccs1
> 50.9	O=C(NCCC(=O)N1CCCCC1)c1ccc(Br)cc1

solubility kinetic [µg/mL]	SMILES
11.1 (≈ 32.1 µM)	COC(=O)c1c(-c2cccc(C)c2)csc1NC(=O)C1CCCO1 (centres undefined)
> 50.8	CC(C)=C(NC(=O)c1ccccc1)C(=O)Nc1cccc(C(=O)O)c1
1.5 (≈ 4.73 µM)	CCOc1ccc2oc(C(=O)OCC(=O)NC3CC3)c(C)c2c1
> 53.3	CCOc1ccc(NC(=O)CC(Cc2cc(C)cc(C)c2)C(=O)O)cc1 (centres undefined)
25.8 (≈ 118 µM)	Clc1ccc(CNc2ccccn2)cc1
34.4 (≈ 91.4 µM)	Cc1cc(C(=O)COc2cc(F)ccc2[N+](=O)[O-])c(C)n1CC1CCCO1 (centres undefined)
3.9 (≈ 9.76 µM)	CCN(CC)S(=O)(=O)c1ccc(NC(=O)c2cc(=O)[nH]c3ccccc23)cc1
46.4	CCN1CCN(CCC(=O)Nc2cccc(C)c2)CC1.Cl
7 (≈ 16.4 µM)	COc1ccccc1NC(=O)c1ccc(S(=O)(=O)N(C)c2ccccc2OC)cc1
> 33.9	Cc1ccc(C(=O)Nc2ccncc2)c(C)c1
> 57.1	COc1ccc(NC(=O)COC(=O)CCNC(=O)c2ccco2)cc1Cl
2.7 (≈ 6.99 µM)	COc1ccc(C(=O)OCC(=O)c2ccc3c(c2)NC(=O)CO3)cc1[N+](=O)[O-]
35.3 (≈ 108 µM)	COc1ccccc1NC(=O)CN1CCN(c2ccccc2)CC1
> 35.6	CC(=O)NC(Cc1ccc(O)cc1)C(=O)NN (centres undefined)
47.7 (≈ 143 µM)	Cc1csc(NC(=O)CSc2nccn2Cc2ccco2)n1
42.8 (≈ 140 µM)	CC(=O)Nc1ccc(-c2cc(C(=O)O)c3ccccc3n2)cc1
> 67.7	NS(=O)(=O)c1ccc(CNC(=O)c2ccc(NS(=O)(=O)c3cccs3)cc2)cc1
22.2 (≈ 60.7 µM)	O=C(COC(=O)CNC(=O)c1ccccc1F)Nc1ccc(Cl)cn1
35 (≈ 130 µM)	Cc1ccc(C(=O)C(=O)c2ccc(C)c(N)c2)cc1N
> 45.6	Cl.O=C(OCCN1CCCCC1)c1cccc(Cl)c1
> 45.4	COc1ccc(CCNC(=O)CSc2ccccn2)cc1
> 32.7	O=C(NNC(=O)C1CCC1)c1ccccc1
